According to patent US12269800B2, “Delivery of therapeutic alkaloid compounds” (priority 2021, dated 2025):
Like-named read-outs stand apart in the source and are kept apart here.

What was measured:
[1] = 5 µM
[2] = 5 µM; remark: listed apart in the source

Structure (SMILES) | Human Plasma Prodrug (%) ([1]; 0 min) | Human Plasma Prodrug (%) ([1]; 10 min) | Human Plasma Prodrug (%) ([1]; 30 min) | Human Plasma Prodrug (%) ([1]; 60 min) | Human Plasma Prodrug (%) ([1]; 120 min) | Human Plasma Prodrug (%) ([1]; 240 min) | Rat Plasma Prodrug (%) ([2]; 0 min) | Rat Plasma Prodrug (%) ([2]; 10 min) | Rat Plasma Prodrug (%) ([2]; 30 min) | Rat Plasma Prodrug (%) ([2]; 60 min) | Rat Plasma Prodrug (%) ([2]; 120 min) | Rat Plasma Prodrug (%) ([2]; 240 min)
CCC(C)(C)C(=O)OC1=C[C@@H]2N(C)CC[C@]2(c2ccc(OC)c(OC)c2)CC1 [Compound 428, (3aS,7aS)-3a-(3,4-dimethoxyphenyl)-1-methyl-2,3,3a,4,5,7a-hexahydro-1H-indol-6-yl 2,2-dimethylbutanoate] | 100.0 | 82.9 | 74.5 | 69.1 | 56.8 | 46.0 | 100.0 | 90.3 | 69.9 | 41.7 | 18.1 | 3.9
CCC(C)(CC)C(=O)OC1=C[C@@H]2N(C)CC[C@]2(c2ccc(OC)c(OC)c2)CC1 [Compound 430, (3aS,7aS)-3a-(3,4-dimethoxyphenyl)-1-methyl-2,3,3a,4,5,7a-hexahydro-1H-indol-6-yl 2-ethyl-2-methylbutanoate] | 100.0 | >99 | >99 | >99 | >99 | 95.9 | 100.0 | 98.2 | 98.3 | 97.1 | 94.1 | 92.8
CCC(CC)C(=O)OC1=C[C@@H]2N(C)CC[C@]2(c2ccc(OC)c(OC)c2)CC1 [Compound 426, (3aS,7aS)-3a-(3,4-dimethoxyphenyl)-1-methyl-2,3,3a,4,5,7a-hexahydro-1H-indol-6-yl 2-ethylbutanoate] | 100.0 | 87.1 | 80.3 | 79.2 | 73.6 | 66.4 | 100.0 | 70.2 | 33.2 | 9.5 | 0.9 | 0.1
COc1ccc([C@@]23CCC(OC(=O)CCN)=C[C@@H]2N(C)CC3)cc1OC [Compound 397, (3aS,7aS)-3a-(3,4-dimethoxyphenyl)-1-methyl-2,3,3a,4,5,7a-hexahydro-1H-indol-6-yl 3-aminopropanoate] | 100.0 | 2.2 | 0.5 | 0.1 | 0.2 | 0.0 | 100.0 | 10.5 | 0.5 | 0.1 | 0.1 | 0.1
CCCC(C)C(=O)OC1=C[C@@H]2N(C)CC[C@]2(c2ccc(OC)c(OC)c2)CC1 (stereo partly drawn) [Compound 402, (3aS,7aS)-3a-(3,4-dimethoxyphenyl)-1-methyl-2,3,3a,4,5,7a-hexahydro-1H-indol-6-yl 2-methylpentanoate] | 100.0 | 11.3 | 2.9 | 2.1 | 1.6 | 1.1 | 100.0 | 3.5 | 0.1 | 0.0 | 0.0 | 0.0
